# Patent publication US8951999B2, “Compounds” (Orexo AB, priority 2009, dated 2015)
# Biological target: T1, recombinant human mPGES-1 (Homo sapiens, UniProt O14684)
# T1 sequence (O14684 1-152): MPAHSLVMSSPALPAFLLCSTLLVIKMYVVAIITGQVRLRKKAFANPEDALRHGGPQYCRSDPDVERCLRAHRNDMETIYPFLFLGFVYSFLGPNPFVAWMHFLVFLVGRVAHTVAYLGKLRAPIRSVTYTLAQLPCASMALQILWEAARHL
# Experiment: Assay B: mPGES-1 enzyme assay (modified)
# Type: biochemical
# Conditions: biological assay B (all other compounds); PGH2 final conc. 2 μM, HTRF; read-out: mPGES-1 inhibitory effect IC50
# Method: Assay B: mPGES-1 Enzyme Assay (Modified)
# The aim of this assay is to determine the affinity of a test compound for the mPGES-1 enzyme.
# 47 μl of recombinant human mPGES-1 (˜0.5 μg protein/well) containing microsomal suspension in a buffer containing GSH, (2.5 mmol/L L-Glutathione reduced, dissolved in 0.1 mol/L Phosphat Buffer pH 7.4) is dispensed in a 384-well plate and thereafter 1 μl of the test compound(s) is/are added and incubated for 25 minutes at room temperature. The enzyme reaction is started by the addition of 2 ul PGH2 (final conc. 2 μM) dissolved in water-free Diglyme. After 60 seconds the reaction is terminated by addition of a stop solution containing FeCl2 (10 μL 0.074 mol/l FeCl2). The samples are diluted between 1:25 in PBS (Phosphate Buffered Saline). 10 μl of the diluted samples are transferred to 384-well low volume plate. In order to quantify the amount of PGE2 that has been formed, a homogenous time resolved fluorescent (HTRF) detecting of PGE2 has been performed using a commercially available kit from Cisbio according to the manufactures recommendation. This HTRF-based assay has been described in detail (see: Goedken et al., J Biomol Screen, 2008, 13(7), 619-625). Briefly, the diluted samples are mixed with […] PGE2-d2 conjugate and 5 μl anti-PGE2 cryptate conjugate. After an incubation period of the plates over night, the fluorescence is measured by the use of an appropriate microplate reader.
# The fluorescence of Europium cryptate (maxex=307 nm, maxem=620 nm) and d2-PGE2 (maxex=620 nm, maxem=665 nm) are measured.
# The extent of the specific HTRF is measured as a ratio of the emission intensity at 665 nm vs. that at 620 nm at an excitation pulse of 320 nm. The quantification plate contains also wells with different concentrations of PGE2 as calibration curve for the calculation of the PGE2 concentrations from the HTRF ratio values.
# From all mPGES enzyme assay the background is subtracted and the IC50 is calculated over a nonlinear regression with conventional software.
row,Structure (SMILES),IC50
1,"CC(C)(C)C(=O)NCc1ccc(Cl)c(C(=O)Nc2ccc(OCC(F)F)c(C(=O)Nc3ccc(Br)cc3)c2)c1F [Example 45, N-[4-(2,2-Difluoroethyl)oxy-3-(4-bromophenyl)aminocarbonyl-phenyl]-6-chlor-2-fluor-3-(tert-butylcarbonylamino)methyl-benzamide]",4 nM
2,CC(C)(C(=O)NCc1ccc(Cl)c(C(=O)Nc2ccc(OC3CCOC3)c(C(=O)N[C@H]3CC[C@H](C(F)(F)F)CC3)c2)c1)C(F)(F)F (stereo partly drawn) [Example 67],5 nM
3,CC(C)(C(=O)NCc1ccc(Cl)c(C(=O)Nc2ccc(OCC(F)F)c(C(=O)Nc3cc(F)cc(Cl)c3)c2)c1)C(F)(F)F [Example 113],4 nM
4,CC(C)(C)C(=O)NCc1ccc(F)c(C(=O)Nc2cnc(OCC(F)F)c(C(=O)Nc3ccc(Br)cc3)c2)c1F [Example 74],47 nM
5,CC(C)(C)C(=O)NCc1ccc(Cl)c(C(=O)Nc2ccc(N3CCC(F)(F)CC3)c(C(=O)Nc3ccc(Br)cc3)c2)c1Cl [Example 181],2 nM
6,CC(C)(C(=O)NCc1ccc(Cl)c(C(=O)Nc2ccc(OCC(F)F)c(C(=O)Nc3ccc(Cl)cc3Cl)c2)c1)C(F)(F)F [Example 94],6 nM
7,COCC1(CNC(=O)c2cc(NC(=O)c3cc(CNC(=O)C(C)(C)C(F)(F)F)ccc3Cl)ccc2OCC(F)F)CCCC1 [Example 88],9 nM
8,CC(C)(C(=O)NCc1ccc(Cl)c(C(=O)Nc2ccc(OCC(F)F)c(C(=O)Nc3ccc(Cl)c(F)c3)c2)c1Cl)C(F)(F)F [Example 156],1 nM
9,CC(C)(C(=O)NCc1ccc(Cl)c(C(=O)Nc2ccc(OCC(F)F)c(C(=O)Nc3ccncc3Cl)c2)c1)C(F)(F)F [Example 137],9 nM
10,"CC(C)(C)C(=O)NCc1ccc(Cl)c(C(=O)Nc2cnc(OCC(F)F)c(C(=O)Nc3cc(F)cc(Cl)c3)c2)c1Cl [Example 75, N-[2-(2,2-Difluoroethoxy)-3-(3-chloro-5-fluorophenyl)aminocarbonyl-pyridin-5-yl]-2,6-dichloro-5-(tert-butylcarbonylamino)methyl-benzamide]",6 nM
11,"O=C(Nc1ccc(Br)cc1)c1cc(NC(=O)c2c(F)ccc(CNC(=O)C(F)(F)F)c2Cl)ccc1OCC(F)F [Example 43, N-[4-(2,2-Difluoroethyl)oxy-3-(4-bromophenyl)aminocarbonyl-phenyl]-6-fluor-2-chlor-3-(trifluormethylcarbonylamino)methyl-benzamide]",120 nM
12,COCCOc1ccc(NC(=O)c2cc(CNC(=O)C(C)(C)C(F)(F)F)ccc2Cl)cc1C(=O)N[C@H]1CC[C@H](C(F)(F)F)CC1 [Example 64],4 nM
13,CC(C)(C(=O)NCc1ccc(Cl)c(C(=O)Nc2ccc(OCC(F)F)c(C(=O)Nc3cccc(F)c3)c2)c1)C(F)(F)F [Example 119],5 nM
14,CC(C)(C)C(=O)NCc1ccc(Cl)c(C(=O)Nc2cnc(OCC(F)F)c(C(=O)Nc3ccc(Cl)c(F)c3)c2)c1Cl [Example 76],12 nM
15,CC(C)(C(=O)NCc1ccc(Cl)c(C(=O)Nc2ccc(OCC(F)F)c(C(=O)NCCC(F)(F)F)c2)c1Cl)C(F)(F)F [Example 146],14 nM
16,CC(C)(C(=O)NCc1ccc(Cl)c(C(=O)Nc2ccc(OCC(F)F)c(C(=O)NCC(F)(F)F)c2)c1Cl)C(F)(F)F [Example 147],8 nM
17,CC(C)(C)C(=O)NCc1ccc(Cl)c(C(=O)Nc2ccc(N3CCCC(C(F)(F)F)C3)c(C(=O)Nc3ccc(Br)cc3)c2)c1Cl (stereo not drawn) [Example 180],2 nM
18,CC(C)(C(=O)NCc1ccc(Cl)c(C(=O)Nc2ccc(OCC(F)F)c(C(=O)NCC3(O)CC3)c2)c1)C(F)(F)F [Example 102],> 100 nM
19,CC(C)(C(=O)NCc1ccc(Cl)c(C(=O)Nc2ccc(OCC(F)F)c(C(=O)NC3CCC(C(F)F)CC3)c2)c1)C(F)(F)F (stereo not drawn) [Example 142],6 nM
20,"CC(C)(C(=O)NCc1ccc(Cl)c(C(=O)Nc2ccc(OCC(F)F)c(C(=O)N[C@H]3CC[C@H](C(F)(F)F)CC3)c2)c1)C(F)(F)F [Example 82, N-[4-(2,2-difluoroethyl)oxy-3-(trans-4-trifluoromethylcyclohexyl)aminocarbonyl-phenyl]-2-chloro-5-[(2,2,2-trifluoro-1,1-dimethyl-ethyl)carbonylamino}methyl-benzamide]",8 nM
21,CC(C)(C(=O)NCc1ccc(Cl)c(C(=O)Nc2ccc(OCC(F)F)c(C(=O)NCC3CCCOC3)c2)c1)C(F)(F)F (stereo not drawn) [Example 98],43 nM
22,CC(C)(C(=O)NCc1ccc(Cl)c(C(=O)Nc2ccc(OCC(F)F)c(C(=O)NCCC3CC3)c2)c1)C(F)(F)F [Example 143],6 nM
23,CC(C)(C(=O)NCc1ccc(Cl)c(C(=O)Nc2ccc(OCC(F)F)c(C(=O)NCc3ncccc3C(F)(F)F)c2)c1)C(F)(F)F [Example 138],5 nM

row,Structure (SMILES),IC50
1,CC(NC(=O)c1cc(NC(=O)c2c(Cl)ccc(CNC(=O)C(C)(C)C(F)(F)F)c2Cl)ccc1OCC(F)F)C1CC1 (stereo not drawn) [Example 148],1 nM
2,CC(C)(C(=O)NCc1ccc(Cl)c(C(=O)Nc2ccc(OCC(F)F)c(C(=O)NCc3cccc(C(F)(F)F)c3)c2)c1)C(F)(F)F [Example 101],9 nM
3,CC(C)(C(=O)NCc1ccc(Cl)c(C(=O)Nc2ccc(OCC(F)F)c(C(=O)Nc3nc4c(s3)CCC4)c2)c1)C(F)(F)F [Example 127],19 nM
4,CC(C)(C)C(=O)NCc1ccc(Cl)c(C(=O)Nc2ccc(N3CCC(F)(F)C3)c(C(=O)Nc3ccc(Br)cc3)c2)c1Cl [Example 179],4 nM
5,"CC(C)(C(=O)NCc1ccc(Cl)c(C(=O)Nc2ccc(N3CCC(F)CC3)c(C(=O)Nc3ccc(F)c(Cl)c3)c2)c1F)C(F)(F)F [Example 57, N-[4-(4-Fluoro-piperidin-1-yl)-3-(3-chloro-4-fluorophenyl)aminocarbonyl-phenyl]-2-fluoro-6-chloro-3-[(2,2,2-trifluoro-1,1-dimethyl-ethyl)carbonylamino]methyl-benzamide]",2 nM
6,CC(C)(C)C(=O)NCc1ccc(Cl)c(C(=O)Nc2ccc(N3CCC(C(F)(F)F)CC3)c(C(=O)NCC3CC3)c2)c1 [Example 63],5 nM
7,CC(N)(C(=O)NCc1ccc(Cl)c(C(=O)Nc2ccc(OCC(F)F)c(C(=O)Nc3ccc(Br)cc3)c2)c1)C(F)(F)F (stereo not drawn) [Example 171],6 nM
8,CC(C)(C(=O)NCc1ccc(Cl)c(C(=O)Nc2ccc(OCC(F)F)c(C(=O)NCC3CC3)c2)c1Cl)C(F)(F)F [Example 152],11 nM
9,CC(C)(C(=O)NCc1ccc(Cl)c(C(=O)Nc2ccc(OCC(F)F)c(C(=O)NC3CCC4(CC3)CC4)c2)c1)C(F)(F)F [Example 136],7 nM
10,CC(C)(C(=O)NCc1ccc(Cl)c(C(=O)Nc2ccc(OCC(F)F)c(C(=O)NCC3CCCCC3)c2)c1)C(F)(F)F [Example 129],5 nM
11,CC(C)(O)C(=O)NCc1ccc(Cl)c(C(=O)Nc2ccc(OCC(F)F)c(C(=O)Nc3ccc(Br)cc3)c2)c1 [Example 172],6 nM
12,CC(C)(C(=O)NCc1ccc(Cl)c(C(=O)Nc2ccc(OCC(F)F)c(C(=O)Nc3nc4ccc(Cl)cc4s3)c2)c1)C(F)(F)F [Example 93],7 nM
13,CC(C)(C(=O)NCc1ccc(Cl)c(C(=O)Nc2ccc(OCC(F)F)c(C(=O)Nc3ccc(Cl)c(C#N)c3)c2)c1)C(F)(F)F [Example 106],6 nM
14,CC(C)(C(=O)NCc1ccc(Cl)c(C(=O)Nc2ccc(OCC(F)F)c(C(=O)Nc3ccccc3Cl)c2)c1)C(F)(F)F [Example 139],6 nM
15,CC(C)(C(=O)NCc1ccc(Cl)c(C(=O)Nc2ccc(OCC(F)F)c(C(=O)NCC3CC3)c2)c1)C(F)(F)F [Example 95],8 nM
16,CC(C)(C(=O)NCc1ccc(Cl)c(C(=O)Nc2ccc(OCC(F)F)c(C(=O)NCC(F)(F)C(F)(F)F)c2)c1)C(F)(F)F [Example 114],10 nM
17,CC(C)(C(=O)NCc1ccc(Cl)c(C(=O)Nc2ccc(OCC(F)F)c(C(=O)Nc3ccc(OC(F)(F)F)c(Cl)c3)c2)c1)C(F)(F)F [Example 130],4 nM
18,O=C(Nc1ccc(OC2CCOC2)c(C(=O)N[C@H]2CC[C@H](C(F)(F)F)CC2)c1)c1cc(CNC(=O)C2(C(F)(F)F)CC2)ccc1Cl (stereo partly drawn) [Example 68],9 nM
19,CC(C)(C(=O)NCc1ccc(Cl)c(C(=O)Nc2ccc(OCC(F)F)c(C(=O)Nc3cc(F)cc(Cl)c3)c2)c1Cl)C(F)(F)F [Example 151],1 nM
20,CC(C)(C(=O)NCc1ccc(Cl)c(C(=O)Nc2ccc(OCC(F)F)c(C(=O)Nc3ncc(Cl)s3)c2)c1)C(F)(F)F [Example 83],7 nM
21,CC(C)NC(=O)c1cc(NC(=O)c2cc(CNC(=O)C(C)(C)C(F)(F)F)ccc2Cl)ccc1OCC(F)F [Example 110],17 nM
22,CC(C)(C(=O)NCc1ccc(Cl)c(C(=O)Nc2ccc(OCC(F)F)c(C(=O)Nc3ccc(Cl)c(F)c3)c2)c1)C(F)(F)F [Example 108],5 nM
